This passage reports IC50 results from US20240116951A1, “HETEROCYCLIC COMPOUNDS AND USES THEREOF” (Kumquat Biosciences Inc., priority 2022, published 2024).

Assay type in all cases: binding
One assay addresses T1, KRAS G12S (Homo sapiens, UniProt P01116, G12S).
T1 construct: made in house; host or cells: E. coli, e.g. BL21 (DE3)
Description: HTRF assay of K-Ras G12S interaction with SOS1 (PPI-HTRF). The note with it: 5 nM KRAS G12S, read-out: PPI-HTRF-5 nM KRAS G12S. The essentials:
(§1)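 HTRF readout of GST-tagged K-Ras (WT or mutant) binding to His-hSOS1, using anti-GST-Eu donor and anti-6His-XL665 acceptor in HEPES pH 7.4 buffer with DTT, BSA and Igepal. Read after about 10 min or longer; duplicate compound dilutions from 10 μM. IC50 from 665/620 nm ratio.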

Another assay addresses T2, KRAS WT (Homo sapiens, UniProt P01116).
T2 construct: made in house; host or cells: E. coli, e.g. BL21 (DE3)
Description: HTRF assay of wildtype K-Ras interaction with SOS1 (PPI-HTRF). The note with it: HTRF, 5 nM KRAS WT; read-out: PPI-HTRF-5 nM KRAS WT. In a few lines:
as §1
In general terms: Time-resolved FRET reads energy transfer from a long-lived donor to a nearby acceptor.

In the next assay the target is T3, KRAS G12D (Homo sapiens, UniProt P01116, G12D).
T3 construct: made in house; host or cells: E. coli, e.g. BL21 (DE3)
Description: HTRF assay of K-Ras G12D interaction with SOS1 (PPI-HTRF). The note with it: HTRF, 5 nM KRAS G12D; read-out: PPI-HTRF-5 nM KRAS G12D. In a few lines:
as §1

T3 sequence (P01116 1-188 isoform P01116-2 G12D): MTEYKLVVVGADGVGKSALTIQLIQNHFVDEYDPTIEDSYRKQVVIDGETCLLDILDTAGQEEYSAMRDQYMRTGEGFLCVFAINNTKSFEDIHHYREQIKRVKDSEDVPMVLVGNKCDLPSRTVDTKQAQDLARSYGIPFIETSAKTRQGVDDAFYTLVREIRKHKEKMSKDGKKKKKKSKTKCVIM
T1 sequence (P01116 1-188 isoform P01116-2 G12S): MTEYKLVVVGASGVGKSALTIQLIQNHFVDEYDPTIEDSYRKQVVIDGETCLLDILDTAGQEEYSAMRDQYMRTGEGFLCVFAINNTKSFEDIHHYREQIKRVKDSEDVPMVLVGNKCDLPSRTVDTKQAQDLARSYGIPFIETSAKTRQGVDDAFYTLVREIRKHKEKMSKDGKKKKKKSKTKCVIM
T2 sequence (P01116 1-188 isoform P01116-2): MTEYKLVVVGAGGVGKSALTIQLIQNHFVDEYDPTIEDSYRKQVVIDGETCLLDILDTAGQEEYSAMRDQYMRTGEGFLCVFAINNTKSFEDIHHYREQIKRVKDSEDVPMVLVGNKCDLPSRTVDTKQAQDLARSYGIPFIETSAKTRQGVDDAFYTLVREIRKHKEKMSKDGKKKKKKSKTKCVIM

With `N#Cc1c(N)sc2c(F)ccc(-c3c(Cl)cc4c(N5CCC6(CCN6)C5)nc(OC[C@@]56CCCN5C[C@H](F)C6)nc4c3F)c12` (stereo partly drawn) [Compound 212, 2-amino-4-(6-chloro-8-fluoro-2-(((2R,7aS)-2-fluorotetrahydro-1H-pyrrolizin-7a(5H)-yl)methoxy)-4-(1,6-diazaspiro[3.4]octan-6-yl)quinazolin-7-yl)-7-fluorobenzo[b]thiophene-3-carbonitrile], the IC50 at KRAS G12S, at KRAS WT and at KRAS G12D was less than 5 µM each time.
Regarding `Nc1nc2c(-c3ccc4c(N5CCC6(CCN6)CC5)nc(OC[C@@]56CCCN5C[C@H](F)C6)nc4c3F)ccc(F)c2s1` [Compound 204, 7-fluoro-4-(8-fluoro-2-(((2R,7aS)-2-fluorotetrahydro-1H-pyrrolizin-7a(5H)-yl)methoxy)-4-(1,7-diazaspiro[3.5]nonan-7-yl)quinazolin-7-yl)benzo[d]thiazol-2-amine], the IC50 on KRAS G12S, at KRAS WT and at KRAS G12D was less than 5 µM throughout.
In the case of `C[C@H](Oc1nc(N2CCCC3(CCN3C(=O)c3ccnn3C)C2)c2cc(Cl)c(-c3ccc(F)c4sc(N)c(C#N)c34)c(F)c2n1)[C@@H]1CCCN1C` (stereo partly drawn) [Compound 282, 2-amino-4-(6-chloro-8-fluoro-4-(1-(1-methyl-1H-pyrazole-5-carbonyl)-1,6-diazaspiro[3.5]nonan-6-yl)-2-((S)-1-((S)-1-methylpyrrolidin-2-yl)ethoxy)quinazolin-7-yl)-7-fluorobenzo[b]thiophene-3-carbonitrile], the IC50 on KRAS G12S, at KRAS WT and on KRAS G12D was less than 5 µM throughout.
As to `C[C@H]1N(c2nc(OC[C@@]34CCCN3C[C@H](F)C4)nc3c(F)c(-c4ccc(F)c5sc(N)c(C#N)c45)c(Cl)cc23)CC[C@]12CCN2C(=O)n1cnc(Cl)n1` [Compound 229, 2-amino-4-(6-chloro-4-((4S,5R)-1-(3-chloro-1H-1,2,4-triazole-1-carbonyl)-5-methyl-1,6-diazaspiro[3.4]octan-6-yl)-8-fluoro-2-(((2R,7aS)-2-fluorotetrahydro-1H-pyrrolizin-7a(5H)-yl)methoxy)quinazolin-7-yl)-7-fluorobenzo[b]thiophene-3-carbonitrile], the IC50 on KRAS G12S, on KRAS WT and at KRAS G12D was less than 5 µM throughout.
For the molecule `C[C@H]1CN(C(=O)n2cnc(Br)n2)[C@]12CCN(c1nc(OC[C@@]34CCCN3C[C@H](F)C4)nc3c(F)c(-c4ccc(F)c5sc(N)c(C#N)c45)c(Cl)cc13)C2` [Compound 224, 2-amino-4-(4-((3S,4R)-1-(3-bromo-1H-1,2,4-triazole-1-carbonyl)-3-methyl-1,6-diazaspiro[3.4]octan-6-yl)-6-chloro-8-fluoro-2-(((2R,7aS)-2-fluorotetrahydro-1H-pyrrolizin-7a(5H)-yl)methoxy)quinazolin-7-yl)-7-fluorobenzo[b]thiophene-3-carbonitrile], the IC50 at KRAS G12S, at KRAS WT and on KRAS G12D was less than 5 µM each time.
For `C[C@H](Oc1nc(N2CCCC3(CCN3C(=O)n3cncn3)C2)c2cc(Cl)c(-c3ccc(F)c4sc(N)c(C#N)c34)c(F)c2n1)[C@@H]1CCCN1C` (stereo partly drawn) [Compound 201, 4-(4-(1-(1H-1,2,4-triazole-1-carbonyl)-1,6-diazaspiro[3.5]nonan-6-yl)-6-chloro-8-fluoro-2-((S)-1-((S)-1-methylpyrrolidin-2-yl)ethoxy)quinazolin-7-yl)-2-amino-7-fluorobenzo[b]thiophene-3-carbonitrile], the IC50 at KRAS G12S, on KRAS WT and on KRAS G12D was less than 5 µM throughout.
Turning to `Cc1cc(N)c(F)c(-c2c(Cl)cc3c(N4CCC5(CCN5C(=O)n5cncn5)C4)nc(OC[C@@]45CCCN4C[C@H](F)C5)nc3c2F)c1C(F)(F)F` (stereo partly drawn) [Compound 279, (6-(7-(3-amino-2-fluoro-5-methyl-6-(trifluoromethyl)phenyl)-6-chloro-8-fluoro-2-(((2R,7aS)-2-fluorotetrahydro-1H-pyrrolizin-7a(5H)-yl)methoxy)quinazolin-4-yl)-1,6-diazaspiro[3.4]octan-1-yl)(1H-1,2,4-triazol-1-yl)methanone], the IC50 on KRAS G12S, on KRAS WT and on KRAS G12D was more than 5 µM throughout.
